US20140065119A1, “METHODS AND COMPOSITIONS COMPRISING CYCLIC ANALOGUES OF HISTATIN 5 FOR TREATING WOUNDS” (THE UNIVERSITY OF WESTERN ONTARIO, priority 2010, published 2014)
Positions of bridges follow the written chain, without caps; N, C: chain ends. Residues, ends and D or L forms follow the SMILES beside them.

How the values were obtained:
[1] = test system: Primary human neonatal foreskin epithelial cells; test: Toxicity in primary cells, phase contrast morphology; format: cell-based
Experimental: (§1) Toxicological studies of DB2121 in human cells were also undertaken. Primary human neonatal foreskin epithelial cells were used to examine DB2121 toxicity, using a method as described in Min et al. 2004. Nat Biotechnol 22:717-23, the contents of which are incorporated herein by reference. Briefly, when the cells were in log phase, (A) 50 μM DB2121, B) 50 μM Histatin H5, (C) 50 μM ketoconazole, or (D) DMSO was added to the culture medium. At 18 and 36 hours following addition of compound, the foreskin epithelial cells were imaged using phase contract microscopy at 20× magnification. Immediately following the image analysis, proteins were extracted, separated on SDS-PAGE gels, Western blotted, and probed for phosphorylated and non-phosphorylated ERK 1, 2 to monitor cell spreading/migration and/or proliferation of the foreskin keratinocytes. The experiments was repeated three times.

phosphorylated ERK 1, 2 = test: Western blot for phosphorylated ERK 1, 2 in primary cells; format: cell-based, human; conditions: 50 μM, primary cell lysates
Experimental: as §1
It was then investigated whether or not these phenotypes were reflected at the molecular level. The primary cells were lysed and monitored for a marker of proliferation namely, phosphorylated ERK 1, 2.

[2] = Tolerability in adult rats, intra-venous injection; format: in vivo
Experimental: (§2) In addition, mice were able to withstand a concentration of 15 mg/kg of DB2121 when injected via an intra-peritoneal route. When injected into adult rats, a concentration of up to and including 1.5 mg/kg caused no harm when injected intra-venously.

[3] = test system: primary human foreskin epithelial cell culture; test: Viable cell number (trypan exclusion) in primary cell culture; format: cell-based; conditions: various concentrations, 0, 36 and 72 hours; vs 50 μM ketoconazole; FIG. 3
Experimental: To determine range of non-toxic concentrations of DB2121, various concentrations of DB2121, 50 μM ketoconazole or DMSO as a control were separately added to primary human foreskin epithelial cell culture. At 0, 36 and 72 hours after addition, the epithelial cells were titrated off the culture plate and the viable cell number was determined. The experiment was performed in triplicate. At 72 hours, the foreskin epithelial cells exposed to the various compounds were imaged at 20× magnification using phase contrast microscopy. For cell counting, the epithelial cells were stained with trypan exclusion stain to monitor cell viability.

[4] = Tolerability in mice, intra-peritoneal injection; format: in vivo
Experimental: as §2

[5] = Stability in human saliva in vitro by mass spectrometry; format: in vitro ADME; conditions: 1 uM, 37° C.
Experimental: DB2121 cyclic analogue was determined to be stable in vitro in human saliva for at least 72 hours as determined by mass spectrometry. The cyclic analogue was incubated in human saliva at a concentration of 1 uM and at a temperature of 37° C. in vitro. At various time points from 0 to 72 hours, 1.0 ul aliquots were taken and injected directly into a Micromass Quattro Micro mass spectrometer. Data was collected for a total of 3 minutes. The data was then processed using Mass Lynx 4.0 Analysis software.
The expected average mass of the cyclic histatin analogue in its active form is expected to be 2557.93. […] The peaks within an acceptable error of approximately 1 mass unit corresponding to cyclic histatin analogue were 2556.95 at 0 hours, 2557.65 at 24 hours, and 2557.10 at 72 hours incubation.

SMILES | cell morphology ([1]; 50 μM, 18 and 36 hours, phase contrast 20×) | ERK 1, 2 activation (phosphorylated ERK 1, 2) vs control (phosphorylated ERK 1, 2) | concentration (dose) that caused no harm [2] | toxicity in primary cultured cells (viable cell number) [3] | concentration (dose) mice were able to withstand [4] | toxicity to human primary cells ([1]; working concentrations of 50 μM, conclusion from morphology and ERK studies) | time stable in human saliva [5]
CC(=O)N1CCN(c2ccc(OCC3COC(Cn4ccnc4)(c4ccc(Cl)cc4Cl)O3)cc2)CC1 (centres unmarked) [ketoconazole, Ketoconazole, reference compound] | morphologically normal except when treated with ketoconazole | Significant inhibition of ERK 1, 2 activation |  |  |  |  | 
N=C(N)NCCC[C@H](NC(=O)[C@H](Cc1c[nH]cn1)NC(=O)[C@@H]1CSSC[C@H](NC(=O)[C@H](Cc2c[nH]cn2)NC(=O)[C@H](Cc2c[nH]cn2)NC(=O)[C@@H](N)CCCNC(=N)N)C(=O)N[C@@H](Cc2ccc(O)cc2)C(=O)N[C@@H](CCCCN)C(=O)N[C@@H](CCCNC(=N)N)C(=O)N[C@@H](CCCCN)C(=O)N[C@@H](Cc2ccccc2)C(=O)N[C@@H](Cc2c[nH]cn2)C(=O)N[C@@H](CCC(=O)O)C(=O)N[C@@H](CCCCN)C(=O)N[C@@H](Cc2c[nH]cn2)C(=O)N[C@@H](Cc2c[nH]cn2)C(=O)N1)C(=O)NCC(=O)N[C@@H](Cc1ccc(O)cc1)C(=O)O [DB2121, N-RHHCYKRKFHEKHHCHRGY-C] (H-RHHCYKRKFHEKHHCHRGY-OH; disulfide 4-15; N-terminus and C-terminus assumed) |  | not suppressed | ≤ 1.5 mg/kg | minimal toxicity | 15 mg/kg | non-toxic | at least 72 hours
